From ChEMBL document CHEMBL1201862, “PubChem BioAssay data set” (2004)
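A five-concentration, 48-hour dose response in 96-well plates underlies each endpoint, interpolated linearly between surrounding concentrations. GI50 marks 50% less growth.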 Active and inactive are the calls of the source. Rule as the data show it: active = GI50 up to about 1.1 µM and inactive = higher.

Experiments:
Assay in all cases: growth of human tumour cells (NCI), 48 h
[1] = tested on: 786-0
[2] = tested on: A498
[3] = tested on: A549
[4] = tested on: ACHN
[5] = tested on: CAKI-1
[6] = tested on: CCRF-CEM
[7] = tested on: COLO 205
[8] = tested on: DLD-1
[9] = tested on: DMS-114
[10] = tested on: EKVX
[11] = tested on: HCC 2998
[12] = tested on: HCT-116
[13] = tested on: HCT-15
[14] = tested on: HOP-18
[15] = tested on: HOP-62
[16] = tested on: HT-29
[17] = tested on: IGROV-1
[18] = tested on: K562
[19] = tested on: KM-20L2
[20] = tested on: KM12
[21] = tested on: LXFL 529
[22] = tested on: M14
[23] = tested on: M19-MEL
[24] = tested on: MOLT-4
[25] = tested on: Malme-3M
[26] = tested on: NCI-H23
[27] = tested on: NCI-H460
[28] = tested on: NCI-H522
[29] = tested on: OVCAR-3
[30] = tested on: OVCAR-4
[31] = tested on: OVCAR-5
[32] = tested on: OVCAR-8
[33] = tested on: RPMI-8226
[34] = tested on: SF-268
[35] = tested on: SF-295
[36] = tested on: SF-539
[37] = tested on: SK-MEL-28
[38] = tested on: SK-MEL-2
[39] = tested on: SK-MEL-5
[40] = tested on: SK-OV-3
[41] = tested on: SN12C
[42] = tested on: SNB-75
[43] = tested on: SNB-78
[44] = tested on: SW-620
[45] = tested on: TK-10
[46] = tested on: U-251
[47] = tested on: UACC-257
[48] = tested on: UACC-62
[49] = tested on: UO-31
[50] = tested on: XF498
[51] = tested on: DMS-273
[52] = tested on: HL-60
[53] = tested on: HOP-92
[54] = tested on: LOX IMVI
[55] = tested on: NCI-H226
[56] = tested on: RXF 393
[57] = tested on: SNB-19
[58] = tested on: SR
[59] = tested on: MCF7
[60] = tested on: NCI/ADR-RES

In the case of COc1ccc2c(c1)CC1NC2Cc2ccccc21 (stereo not given), the GI50 [1] is reported as > 100 µM (inactive), the GI50 [2] is reported as > 100 µM (inactive) and the GI50 [3] is reported as > 100 µM (inactive). For the same compound, the GI50 [4] was > 100 µM (inactive), the GI50 [5] was > 100 µM (inactive) and the GI50 [6] was > 100 µM (inactive). The GI50 [7] was > 100 µM (inactive), the GI50 [8] was > 100 µM (inactive) and the GI50 [9] was > 100 µM (inactive). For the same compound, the GI50 [10] was > 100 µM (inactive), the GI50 [11] was > 100 µM (inactive) and the GI50 [12] was > 100 µM (inactive). For the same compound, the GI50 [13] was > 100 µM, the GI50 [14] was > 100 µM (inactive) and the GI50 [15] was > 100 µM (inactive). For the same compound, the GI50 [16] was > 100 µM (inactive), the GI50 [17] was > 100 µM (inactive) and the GI50 [18] was > 100 µM (inactive). The GI50 [19] was > 100 µM (inactive), the GI50 [20] was > 100 µM (inactive) and the GI50 [21] was > 100 µM (inactive). The GI50 [22] was > 100 µM (inactive), the GI50 [23] was > 100 µM (inactive) and the GI50 [24] was > 100 µM (inactive). The GI50 [25] was > 100 µM (inactive), the GI50 [26] was > 100 µM (inactive) and the GI50 [27] was > 100 µM (inactive). The GI50 [28] was > 100 µM (inactive), the GI50 [29] was > 100 µM (inactive) and the GI50 [30] was > 100 µM (inactive). The GI50 [31] was > 100 µM (inactive), the GI50 [32] was > 100 µM (inactive) and the GI50 [33] was > 100 µM (inactive). For the same compound, the GI50 [34] was > 100 µM (inactive), the GI50 [35] was > 100 µM (inactive) and the GI50 [36] was > 100 µM (inactive). For the same compound, the GI50 [37] was > 100 µM (inactive), the GI50 [38] was > 100 µM (inactive) and the GI50 [39] was > 100 µM (inactive). The GI50 [40] was > 100 µM (inactive), the GI50 [41] was > 10 µM (inactive) and the GI50 [42] was > 100 µM (inactive). The GI50 [43] was > 100 µM (inactive), the GI50 [44] was > 100 µM (inactive) and the GI50 [45] was > 100 µM (inactive). For the same compound, the GI50 [46] was > 100 µM (inactive), the GI50 [47] was > 100 µM (inactive) and the GI50 [48] was > 100 µM (inactive). The GI50 [49] was > 100 µM (inactive) and the GI50 [50] was > 100 µM (inactive).
With COc1cc(NS(=O)(=O)c2ccc(C)cc2)c2nccnc2c1 the GI50 [1] was 36.1 µM (inactive), the GI50 [2] was 56.2 µM (inactive) and the GI50 [3] was 24 µM (inactive). The GI50 [4] was 23.1 µM (inactive), the GI50 [5] was 37.6 µM (inactive) and the GI50 [6] was 10.3 µM (inactive). The GI50 [7] was 27 µM (inactive), the GI50 [8] was 30.3 µM (inactive) and the GI50 [9] was 14.6 µM (inactive). The GI50 [51] was 23.6 µM (inactive), the GI50 [10] was 39.8 µM (inactive) and the GI50 [11] was 47.6 µM (inactive). The GI50 [13] was 17.7 µM, the GI50 [52] was 13 µM (inactive) and the GI50 [14] was 93.5 µM (inactive). The GI50 [15] was 33.2 µM (inactive), the GI50 [53] was 35.2 µM (inactive) and the GI50 [16] was 36.8 µM (inactive). For the same compound, the GI50 [17] was 36.9 µM (inactive), the GI50 [18] was 20.4 µM (inactive) and the GI50 [19] was 32.1 µM (inactive). The GI50 [20] was 32.6 µM (inactive), the GI50 [54] was 28 µM (inactive) and the GI50 [21] was 20.8 µM (inactive). The GI50 [22] was 17 µM (inactive), the GI50 [23] was 19.5 µM (inactive) and the GI50 [24] was 12.4 µM (inactive). The GI50 [25] was 37.2 µM (inactive), the GI50 [55] was 36.9 µM (inactive) and the GI50 [26] was 34.4 µM (inactive). For the same compound, the GI50 [27] was 13 µM (inactive), the GI50 [28] was 20.7 µM (inactive) and the GI50 [29] was 32.4 µM (inactive). The GI50 [30] was 39.6 µM (inactive), the GI50 [31] was 89.7 µM (inactive) and the GI50 [32] was 26.7 µM (inactive). The GI50 [33] was 25.5 µM (inactive), the GI50 [56] was 14.3 µM (inactive) and the GI50 [34] was 24.7 µM (inactive). The GI50 [35] was 26.7 µM (inactive), the GI50 [36] was 29.2 µM (inactive) and the GI50 [37] was 30.7 µM (inactive). The GI50 [38] was 16.6 µM (inactive), the GI50 [39] was 23.7 µM (inactive) and the GI50 [40] was 84.9 µM (inactive). The GI50 [41] was 39.3 µM (inactive), the GI50 [57] was 29.8 µM (inactive) and the GI50 [42] was 24.3 µM (inactive). For the same compound, the GI50 [58] was 16.7 µM (inactive), the GI50 [44] was 37.8 µM (inactive) and the GI50 [45] was 47 µM (inactive). For the same compound, the GI50 [46] was 22.1 µM (inactive), the GI50 [47] was 29.8 µM (inactive) and the GI50 [48] was 14.8 µM (inactive). The GI50 [49] was 34.4 µM (inactive) and the GI50 [50] was 29 µM (inactive).
With CCOC(=O)/C(O)=C1\C(=O)N(C)C(=O)C1c1cccc(OC)c1 (stereo not given) the GI50 [2] was 95.3 µM (inactive), the GI50 [3] was > 100 µM (inactive) and the GI50 [5] was > 100 µM (inactive). The GI50 [6] was > 100 µM (inactive), the GI50 [7] was > 100 µM (inactive) and the GI50 [8] was > 100 µM (inactive). The GI50 [9] was > 100 µM (inactive), the GI50 [51] was > 100 µM (inactive) and the GI50 [10] was > 100 µM (inactive). For the same compound, the GI50 [11] was > 100 µM (inactive), the GI50 [12] was > 100 µM (inactive) and the GI50 [13] was > 100 µM. The GI50 [52] was > 100 µM (inactive), the GI50 [14] was > 100 µM (inactive) and the GI50 [15] was > 100 µM (inactive). The GI50 [53] was > 100 µM (inactive), the GI50 [16] was > 100 µM (inactive) and the GI50 [17] was > 100 µM (inactive). The GI50 [18] was > 100 µM (inactive), the GI50 [19] was > 100 µM (inactive) and the GI50 [20] was > 100 µM (inactive). The GI50 [54] was > 100 µM (inactive), the GI50 [23] was > 100 µM (inactive) and the GI50 [59] was > 100 µM (inactive). For the same compound, the GI50 [24] was > 100 µM (inactive), the GI50 [25] was > 100 µM (inactive) and the GI50 [55] was > 100 µM (inactive). For the same compound, the GI50 [26] was > 100 µM (inactive), the GI50 [27] was > 100 µM (inactive) and the GI50 [28] was > 100 µM (inactive). For the same compound, the GI50 [60] was > 100 µM (inactive), the GI50 [29] was > 53.3 µM (inactive) and the GI50 [30] was > 100 µM (inactive). The GI50 [31] was > 100 µM (inactive), the GI50 [32] was > 100 µM (inactive) and the GI50 [33] was > 100 µM (inactive). For the same compound, the GI50 [56] was > 100 µM (inactive), the GI50 [34] was > 100 µM (inactive) and the GI50 [35] was > 100 µM (inactive). For the same compound, the GI50 [36] was > 100 µM (inactive), the GI50 [37] was > 100 µM (inactive) and the GI50 [38] was > 100 µM (inactive). The GI50 [39] was > 100 µM (inactive), the GI50 [40] was > 100 µM (inactive) and the GI50 [41] was > 100 µM (inactive). The GI50 [57] was > 100 µM (inactive), the GI50 [42] was > 100 µM (inactive) and the GI50 [43] was > 100 µM (inactive). The GI50 [44] was > 100 µM (inactive), the GI50 [46] was > 100 µM (inactive) and the GI50 [47] was > 100 µM (inactive). The GI50 [48] was > 100 µM (inactive), the GI50 [49] was > 100 µM (inactive) and the GI50 [50] was > 100 µM (inactive).
